We go through eight compounds from patent US5091403A, “Sulfinyl imidazole derivatives and antiulcer agents containing the same” (Nippon Chemiphar Co., Ltd., priority 1989, dated 1992).

Like-named read-outs stand apart in the source and are kept apart here.

The test system of data set [1] is secretion of gastric acid. Description: Inhibitory action against the secretion of gastric acid (Test II), Heidenhain pouch dogs, histamine, intravenous. Format: in vivo, dog (male beagle). Conditions: 3 mg/kg, intravenously, one hour after initiation of histamine; 30 min post-drug vs pre-drug. How it is done:
(§1) Heidenhain pouch dogs produced from male beagle dogs were fasted. To the dogs were then administered intra venously histamine hydrochloride (gastric juice secretion inducing agent) continuously at a dose of 160 μg/kg/hr. The gastric juice was collected at an interval of 15 min. to measure the amount of gastric juice and acid output to determine an acid secretion amount (mEq/15 min).
The test compound was intravenously administered to the dogs at one hour after the initiation of histamine ad ministration.
The inhibitory action was determined by comparing the acid secretion amount between pre-drug value (just before drug administration) and post-drug value (30 min. after drug administration).

The target of data set [2] is T1, H^+ +K^+ ATPase (Oryctolagus cuniculus, UniProt P27112).
T1 construct: a rabbit gastric mucosa were isolated; from tissue; host or cells: rabbit gastric mucosa; vesicles from a discontinuous Ficoll gradient
Description: H^+ +K^+ ATPase Inhibitory Effects (Test 2). Conditions: read-out: H^+ + K^+ ATPase inhibitory action IC50. Format: biochemical, rabbit. How it is done: (§2) Following the method of Forte et al (J. Applied Physiol., 32, 714.717 (1972)), a rabbit gastric mucosa were isolated. A vesicle containing H^+ +K^+ ATPase was prepared by centrifuging the cells in Ficoll of discontinuous density gradient according to G. Saccomani et al (Biochim. Biophys. Acta, 465. 311-330 (1977)). After the enzyme was incubated at room temperature for 25 min. in 0.5 ml of a solution which contained 5 mM of an imidazole buffer (pH 6.0) and 2 × 10^-4 M of 2-[2-(2-methoxyethylamino)benzylsulfinyl] imidazole (the compound of Example 1; the test compound), the mixture was heated to 37° C. The mixture was then allowed to stand for further 5 min. To the mixture was added 0.5 ml of a solution which contained 4 mM of magnesium chloride, 80 mM of an imidazole buffer (pH 7.4), 20 mM of potassium chloride and 4 mM of ATP. The resulting mixture was reacted at 37° C. for 15 min. and 1 ml of 24 % trichloroacetic acid was then added to terminate the reaction. The inorganic phosphorus liberated was quantitatively determined by the method proposed by Taussky and Shorr (J. Biol. Chem., 202, 675-685 (1953)).
(§3) The above procedure was repeated except for not using potassium chloride to determine […] in the absence of potassium chloride. The desired K^+ -dependent ATPase activity was calculated by subtracting the ATPase activity value determined in the absence of KCl from the ATPase activity value determined in the presence of KCl.
the enzyme was prepared in the same manner described in the above Test 1. After the enzyme was incubated at room temperature for 25 min. in 0.5 ml of a solution which contained 5 mM of an imidazole buffer (pH 6.0 or pH 7.4) and various concentrations of test compound, the mixture was heated to 37° C. The mixture was then allowed to stand for further 5 min. The value of H^+ +K^+ ATPase inhibitory action of each test compound was determined int he same manner described in the above Test 1.

The target in data set [3] is T1, H^+ +K^+ ATPase. Description: H^+ +K^+ ATPase Inhibitory Effects (Test 1). Conditions: 2 × 10^-4 M test compound; incubation at pH 6.0, 25 min, room temperature; read-out: value of H^+ +K^+ ATPase inhibitory action. Format: biochemical, rabbit. How it is done:
as §2, with “The resulting mixture was reacted at 37° C. for 15 min. and 1 ml of 24 % trichloroacetic acid was then added to terminate the reaction.” left out
as §3

Data set [4] relates to secretion of gastric acid. Nature of the data set: Inhibitory action against the secretion of gastric acid (Test I), pylorus-ligated rats. To be noted: intraduodenally, 4 hours, vs vehicle control. Type of data set: in vivo, rat (male Donryu). How it is done: Male Donryu rats having a body weight of 200 to 250 g were fasted (while allowing free access to water) for 24 hrs. in accordance with the conventional method [Shay, H. et al, Gastroenterology, 5, 43.61 (1945)]. Under ether anesthesia the pylorus was ligated and 2-[2-(2-methoxyethylamino)benzylsulfinyl] imidazole (the compound of Example 1; the test compound) was administered intraduodenally. Four hours later, each rat was killed and the stomach was removed to collect the gastric juice. The inhibitory action was determined by comparing the acid output which was determined by titration to pH 7.0 with 0.1.N sodium hydroxide by means of an automatic titrator, with the corresponding value of a control rat prepared in the same manner except that a vehicle alone was administered.

The subject of data set [5] is secretion of gastric acid. Nature of the data set: Inhibitory action against the secretion of gastric acid (Test II, other experiment), Heidenhain pouch dogs, histamine, oral. Conditions: orally, 2 hours before initiation of histamine, vs vehicle control dog. Type of data set: in vivo, dog (male beagle). Here is the method: as §1
At the other experiment, the test compounds mere administrated orally 2 hours before the initiation of histamine administration, and the inhibitory action was determined by comparing the acid secretion amount wit the corresponding amount of a control dog prepared in the same manner except that a vehicle alone was administered.

The nature of data set [6]: Acute toxicity test. Type of data set: in vivo, rat (male SD). Conditions: orally, observed for 2 days. The text has this:
Male SD rats having a body weight of about 190 g were orally administered with compound of Example 8. The rats were then observed for 2 days.

T1 sequence (P27112 whole entry): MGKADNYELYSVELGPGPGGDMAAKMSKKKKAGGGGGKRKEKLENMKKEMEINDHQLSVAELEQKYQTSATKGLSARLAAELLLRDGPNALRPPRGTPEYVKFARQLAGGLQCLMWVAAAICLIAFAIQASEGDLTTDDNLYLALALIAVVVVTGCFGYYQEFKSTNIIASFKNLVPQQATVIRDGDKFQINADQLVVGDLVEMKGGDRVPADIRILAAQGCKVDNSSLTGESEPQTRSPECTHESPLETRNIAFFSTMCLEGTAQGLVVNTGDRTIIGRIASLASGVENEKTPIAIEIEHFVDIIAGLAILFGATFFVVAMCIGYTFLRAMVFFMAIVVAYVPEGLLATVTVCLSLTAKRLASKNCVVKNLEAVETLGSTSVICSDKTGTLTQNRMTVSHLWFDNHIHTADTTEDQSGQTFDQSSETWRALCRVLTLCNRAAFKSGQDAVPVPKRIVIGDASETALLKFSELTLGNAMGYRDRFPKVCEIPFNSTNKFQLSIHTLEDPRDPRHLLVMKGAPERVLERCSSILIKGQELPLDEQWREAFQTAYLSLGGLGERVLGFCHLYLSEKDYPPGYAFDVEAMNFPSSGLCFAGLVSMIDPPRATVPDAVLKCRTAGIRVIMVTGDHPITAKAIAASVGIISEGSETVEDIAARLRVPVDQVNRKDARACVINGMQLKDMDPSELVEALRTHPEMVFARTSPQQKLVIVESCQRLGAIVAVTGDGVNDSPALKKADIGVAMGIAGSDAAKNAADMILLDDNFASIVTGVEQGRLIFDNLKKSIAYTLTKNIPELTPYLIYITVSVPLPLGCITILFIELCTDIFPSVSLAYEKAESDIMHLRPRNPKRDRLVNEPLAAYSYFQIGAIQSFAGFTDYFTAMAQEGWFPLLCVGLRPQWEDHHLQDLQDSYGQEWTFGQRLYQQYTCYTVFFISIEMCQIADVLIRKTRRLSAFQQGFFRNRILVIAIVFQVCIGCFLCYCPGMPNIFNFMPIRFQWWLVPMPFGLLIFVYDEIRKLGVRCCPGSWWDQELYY
T1 sequence (P18597 whole entry partner): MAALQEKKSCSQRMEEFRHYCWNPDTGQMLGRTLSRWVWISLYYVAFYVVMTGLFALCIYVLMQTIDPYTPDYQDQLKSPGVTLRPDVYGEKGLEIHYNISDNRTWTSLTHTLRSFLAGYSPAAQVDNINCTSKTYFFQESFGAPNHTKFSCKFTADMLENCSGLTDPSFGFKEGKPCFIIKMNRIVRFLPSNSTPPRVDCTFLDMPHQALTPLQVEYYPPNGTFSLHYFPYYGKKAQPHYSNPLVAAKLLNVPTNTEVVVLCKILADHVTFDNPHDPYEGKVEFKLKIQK

The term IC50 denotes the point on the concentration scale where inhibition reaches its midpoint. Turning to `COCCCNc1ccccc1C[S+]([O-])c1ncc[nH]1` (stereo not shown) [Example 6, 2-[2-(3-methoxypropylamino)benzylsulfinyl]imidazole], in data set [1], the “Suppressive action (acid secretion amount)” value (“Suppressive action” below) is 92%. In addition, the figures for the IC50 in data set [2] (pH 6.0) and in data set [2] (pH 7.4) were 13 µM and 60 µM, respectively.

Turning to `CCOCCNc1ccccc1C[S+]([O-])c1ncc[nH]1` (stereo not shown) [Example 5, 2-[2-(2-ethoxyethylamino)benzylsulfinyl]imidazole], the “Suppressive action” value in data set [1] came out at 98%. In addition, the figures for the IC50 in data set [2] (pH 6.0) and in data set [2] (pH 7.4) were 22 µM and 53 µM, respectively.

Consider `COCCNc1ccccc1C[S+]([O-])c1ncc[nH]1` (stereo not shown) [Example 1, 2-[2-(2-methoxyethylamino)benzylsulfinyl]imidazole], for which the inhibition at 200 µM in data set [3] came to 73.1%. Further, the “Suppressive action” value in data set [1] stood at 89%. Further, the figures for the IC50 in data set [2] (pH 6.0) and in data set [2] (pH 7.4) were 43 µM and 180 µM, respectively. In addition, the figures for the “inhibitory action (acid output)” value in data set [4] (10 mg/kg) and in data set [4] (30 mg/kg) were 75.9% and 94.5%, respectively.

For `COCCNc1cc(C)c(OC)c(C)c1C[S+]([O-])c1ncc[nH]1` (stereo not shown) [Example 8, 2-[4,6-dimethyl-5-methoxy-2-(2-methoxyethylamino)benzylsulfinyl]imidazole], the “Suppressive action” value in data set [5] was found to be 100%. Moreover, in data set [6], the MLD is listed as ≥ 1,000 mg/kg. Further, the results for the IC50 in data set [2] (pH 6.0) and in data set [2] (pH 7.4) were 0.46 µM and 11 µM, respectively.

Regarding `CC(C)OCCNc1ccccc1C[S+]([O-])c1ncc[nH]1` (stereo not shown) [Example 2, 2-[2-(2-isopropoxyethylamino)benzylsulfinyl]imidazole], the “Suppressive action” value in data set [1] was determined as 97%. The IC50 amounted to 46 µM in data set [2] (pH 6.0) and 190 µM in data set [2] (pH 7.4).

For the compound `COCCNc1ccc(C)cc1C[S+]([O-])c1ncc[nH]1` (stereo not shown) [Example 3, 2-[2-(2-methoxyethylamino)-5-methylbenzylsulfinyl]imidazole], the “Suppressive action” value in data set [5] turned out to be 100%; in data set [1], 85%. Besides, the results for the IC50 in data set [2] (pH 6.0) and in data set [2] (pH 7.4) were 25 µM and greater than 300 µM, respectively.

Turning to `CCOCCNc1ccc(C)cc1C[S+]([O-])c1ncc[nH]1` (stereo not shown) [Example 7, 2-[2-(2-ethoxyethylamino)-5-methylbenzylsulfinyl] imidazole], the IC50 in data set [2] (pH 6.0) came out at 18 µM; in data set [2] (pH 7.4) it was 94 µM.

With `COCCNc1cccc(C)c1C[S+]([O-])c1ncc[nH]1` (stereo not shown) [Example 4, 2-[2-(2-methoxyethylamino)-6-methylbenzylsulfinyl]imidazole], the “Suppressive action” value in data set [1] was 89%. For the same compound, the figures for the IC50 in data set [2] (pH 6.0) and in data set [2] (pH 7.4) were 4.4 µM and 26 µM, respectively.
